Tests used:
Assay type in all cases: cell-based, Escherichia coli
[1] = tested on: EKO-35 porinated strain expressing acrF (AcrEF); assay: Checkerboard synergy (FICI), porinated strain
How it was run: (§1)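 Inocula prepared from resuspended colonies were exposed to PAβN or NMP combined with antibiotics in MHB II checkerboards. Growth was scored by OD600 to define MICs. FICI then classified the interaction, with values under 0.5 counted as synergistic.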

[2] = tested on: EKO-35 strains with integrated RND tripartite efflux pumps (AcrB, AcrEF, AcrD, and MdtEF) with pGDP2:emrE or empty pGDP-2; assay: Efflux pump interplay MIC profiling (pGDP2:emrE); details: Pore −
[3] = tested on: EKO-35-Pore strains with integrated AcrB, AcrEF, AcrD, MdtEF with pGDP2:emrE or empty pGDP-2; assay: Efflux pump interplay MIC profiling (pGDP2:emrE), porinated; details: Pore +
Description: This plasmid enables single-copy genomic integration of a selected gene through integration into the nonessential araC gene within the arabinose operon (Cox, G. et al., 2022). All E. coli genes were amplified from E. coli BW25113 genomic DNA, and mexCD was amplified from P. aeruginosa PAO1, using a high-fidelity polymerase, followed by ligation into pINT2. Successful clones were verified using PCR (Primers: pLac-Fwd/pINT-Rev, Table 4) and confirmed via Sanger sequencing at The Centre for Applied Genomics (TCAG) (The Hospital for Sick Children) and the AAC (University of Guelph). For the interplay studies, this process was repeated using the pGDP2 plasmid (Cox, G. et al., 2022).
To enable comparison between efflux production in different genetic backgrounds, each efflux pump-encoding gene was also integrated into the genome of the wild-type BW25113 strain, the single gene deletion mutant from the Keio Collection, and EKO-35. Strains of interest were propagated on LB agar at 37° C. Cell inoculum was prepared using the colony resuspension method and applied to a 96-well well plate (VWR) in technical duplicate, and the minimum inhibitory concentrations were determined according to Clinical & Laboratory Standards Institute (CLSI) protocols in MHB II (Patel J. B. et al, 2015). The plates were incubated for 18 h (Multitron Shaker, Infors HT) at 37° C. with aeration at 900 rpm. The plates were equilibrated to room temperature before the OD600 nm was measured using a BioTek Synergy H1 microplate reader. For interplay profiling, blank subtracted OD600 nm values >0.1 were considered to represent growth.
To investigate, the EKO-35-Pore strains were profiled using the same approach.

[4] = tested on: EKO-35 porinated strain expressing acrD; assay: Checkerboard synergy (FICI), porinated strain
How it was run: as §1

[5] = EKO-35 acrEF Pore, NMP + antibiotic
[6] = strain EKO-35 acrEF Pore, NMP + antibiotic
[7] = strain EKO-35 acrEF Pore, antibiotic alone
[8] = strain EKO-35 acrEF Pore, antibiotic in combination with NMP
[9] = EKO-35 acrD Pore, NMP + antibiotic
[10] = EKO-35 acrD Pore, PAβN + antibiotic
[11] = strain EKO-35 acrD Pore, NMP + antibiotic
[12] = EKO-35 acrEF Pore, PAβN + antibiotic

For `CC[n+]1c(-c2ccccc2)c2cc(N)ccc2c2ccc(N)cc21` [ethidium bromide], the FICI [1, 5] was 0.500, the Effect [1, 6] was “Synergistic (Synergy (FICI ≤0.5))” and the FICI [1, 6] was 0.500. For the same compound, the “MICb Alone” value [1, 7] was 2 µg/mL, the “MICb Combined” value [1, 8] was 0.5 µg/mL and the MIC ([2]; strain EKO-35) was 0.122 µg/mL. The “Fold Change from EKO-35” value ([2]; strain EKO-35 pEmrE) was 4, the MIC ([2]; strain EKO-35 pEmrE) was 0.488 µg/mL and the “Fold Change from EKO-35” value ([2]; strain acrB pEmrE) was 256. The MIC ([2]; strain acrB pEmrE) was 31.2 µg/mL, the “Fold Change from EKO-35” value ([2]; strain acrB) was 64 and the MIC ([2]; strain acrB) was 7.81 µg/mL. The “Fold Change from EKO-35” value ([2]; strain acrD pEmrE) was 16, the MIC ([2]; strain acrD pEmrE) was 1.95 µg/mL and the “Fold Change from EKO-35” value ([2]; strain acrD) was 2. For the same compound, the MIC ([2]; strain acrD) was 0.244 µg/mL, the “Fold Change from EKO-35” value ([2]; strain acrEF pEmrE) was 64 and the MIC ([2]; strain acrEF pEmrE) was 7.81 µg/mL. The “Fold Change from EKO-35” value ([2]; strain acrEF) was 16, the MIC ([2]; strain acrEF) was 1.95 µg/mL and the “Fold Change from EKO-35” value ([2]; strain mdtEF pEmrE) was 32. The MIC ([2]; strain mdtEF pEmrE) was 3.91 µg/mL, the “Fold Change from EKO-35” value ([2]; strain mdtEF) was 8 and the MIC ([2]; strain mdtEF) was 0.977 µg/mL. For the same compound, the MIC ([3]; strain EKO-35) was 0.061 µg/mL, the “Fold Change from EKO-35” value ([3]; strain EKO-35 pEmrE) was 4 and the “Fold Change from EKO-35” value ([3]; strain acrB pEmrE) was 256. For the same compound, the MIC ([3]; strain acrB pEmrE) was 15.6 µg/mL, the “Fold Change from EKO-35” value ([3]; strain acrB) was 64 and the MIC ([3]; strain acrB) was 3.91 µg/mL. The “Fold Change from EKO-35” value ([3]; strain acrD pEmrE) was 8, the “Fold Change from EKO-35” value ([3]; strain acrD) was 1 and the MIC ([3]; strain acrD) was 0.061 µg/mL. The “Fold Change from EKO-35” value ([3]; strain acrEF pEmrE) was 64, the MIC ([3]; strain acrEF pEmrE) was 3.91 µg/mL and the “Fold Change from EKO-35” value ([3]; strain acrEF) was 16. For the same compound, the “Fold Change from EKO-35” value ([3]; strain mdtEF pEmrE) was 32, the MIC ([3]; strain mdtEF pEmrE) was 1.95 µg/mL and the “Fold Change from EKO-35” value ([3]; strain mdtEF) was 8.
With `Cc1onc(-c2ccccc2)c1C(=O)N[C@@H]1C(=O)N2[C@@H]1SC(C)(C)[C@@H]2C(=O)O` [oxacillin] the Effect [4, 9] was “Additive”, the FICI [4, 9] was 0.750 and the Effect [4, 10] was “Synergistic”. The FICI [4, 10] was 0.500, the “MICb Alone” value ([4]; EKO-35 acrD Pore, antibiotic alone (PAβN checkerboard)) was 4 µg/mL and the “MICb Combined” value ([4]; EKO-35 acrD Pore, antibiotic in combination with PAβN) was 1 µg/mL. For the same compound, the “interaction of PAβN in combination with the labelled antibiotic (FICI)” value ([4]; acrD expressed in the porinated strain) was “still observed”, the Effect [4, 11] was “Additive (additive (FICI >0.5-1.0))” and the FICI [4, 11] was 0.750. For the same compound, the “MICb Alone” value ([4]; strain EKO-35 acrD Pore, antibiotic alone) was 2 µg/mL, the “MICb Combined” value ([4]; strain EKO-35 acrD Pore, antibiotic in combination with NMP) was 0.5 µg/mL and the FICI [1, 5] was 1.000. The Effect [1, 12] was “Synergistic”, the FICI [1, 12] was 0.500 and the “MICb Alone” value ([1]; EKO-35 acrEF Pore, antibiotic alone (PAβN checkerboard)) was 4 µg/mL. The “MICb Combined” value ([1]; EKO-35 acrEF Pore, antibiotic in combination with PAβN) was 1 µg/mL, the Effect [1, 6] was “— (indifferent (FICI >1.0))” and the FICI [1, 6] was 1.000. The “MICb Alone” value [1, 7] was 2 µg/mL and the “MICb Combined” value [1, 8] was 1 µg/mL.
